Values joined by “and” are separate entries in the source; they are usually repeats but may differ in a detail not shown here. Equal values may be shown once. Marks after values point to notes of the source that are not given here.
Tests used:
[1] = tested on: clot formation in the milk of a transgenic cow; assay: Heparin therapy in one transgenic cow, clot scores; type: in vivo
Method: The inventors also used heparin therapy in one transgenic cow to evaluate if it would prevent clot formation at a dose of 150 IU/kg SQ twice a day, for 5 days. While when the heparin was administered to this cow, the clot scores decreased. […] However, due to the high costs of using heparin, that treatment was not further investigated. Other anticoagulants can be used but many have the disadvantage that they need to be injected intravenously or subcutaneously rather than be or administered orally.

[2] = tested on: recombinant human fibrinogen (rhFib); assay: ELISA of rhFib concentration in the milk of warfarin-treated transgenic heifers; conditions: for rhFib level: ELISA, lines = day, warfarin started on day 1
[3] = Determination of warfarin dosing in non-transgenic non-lactating cows (PT time, adverse effects); type: in vivo, cattle
Method: An initial experiment was performed to determine a dose range of warfarin in cattle. […] The doses therein range from 0.012 to 0.57 mg/kg.
An initial baseline Prothombin time (PT time) and Hematocrit (Hct) were determined. For cow #4289 Hct was 38 and PT was 25.9 seconds. For cow #6685 Hct was 27 and PT time was 26.7 seconds. PT time is a laboratory assay that reflects the depression of vitamin K dependent Factors II, -VII and -X. The PT times were used to determine the final dosing. The PT time test that is generally used in the art, looks at coagulation factors Factor I (fibrinogen), Factor II (prothrombin), Factor V, Factor VII and Factor X, that are all involved in clotting. The test measures the time it takes for a patient's blood to clot. […] The Hct value is helpful to determine if the animal is becoming anemic (i.e. blood loss that would not be grossly evident). In general, Hct is not checked unless one is concerned that blood loss is occurring.
Initially a dose necessary to double the baseline PT times was to be determined and then the dose was to be increased to monitor for adverse affects. It was decided that if the PT levels began to be prolonged over 2.5 times baseline, or Hct fell below 15% the dose would be decreased. Likewise, it was held that the dose would be decreased or discontinued if any of the following disorders would appear: hematomas, anemia, epistaxis, hematemesis, hematuria, melena, hemathrosis, hemothrax, weakness or hematochezia, or bleeding within the udder. Therapy with vitamin K1 and whole blood would be initiated if there was evidence of […] bleeding.
Moreover, and for the same reason, pregnant animals were also not treated with warfarin.
The dose was increased by 10 mg/day until a dose of 100 mg/day was given (˜0.14 mg/kg). Then, this dose was maintained for 12 days. […] Therefore the following adjustments were made: First, the animal was sedated with xylazine, and second, blood was only collected from the jugular vein while the animal's head was tightly restrained. The dose was increased to 120 mg/day (˜0.17 mg/kg) for 17 days.
It took 6 days of therapy for the PT times to double. […] For this reason, this dose of approximately 0.18 mg/kg was then considered unsafe for use in the transgenic rhFib cows.

[4] = tested on: clots and flakes in the milk of transgenic rhFib cattle; assay: Clot scoring of milk of transgenic rhFib cattle during induced lactation; type: in vivo; design: key to clot scores / clot score: 0: Normal milk; 1: Flakes; 2: Less than 10 clots from the quarter on the CMT paddle; 3: Greater than 10 clots from the quarter on the CMT paddle; 4: Severe visible clots
Source text: Recombinant human fibrinogen has been produced in the milk of transgenic cows for some years now. […] To score the level of clotting and to measure any effects, standards were set to determine whether treatment of the cows to reduce clotting was indeed effective. The standards are provided in Table I. Score level 0 is equal to normal milk from non-transgenic cows, whereas score level 4 equals a dramatic level of clotting and the milking machine is unable to extract the milk from the teat. CMT stands for ‘California Mastitis Test’ and is a standard cow side test that screens for the presence of mastitis, a known cause of milk clotting. When a cow is milked, the milk is collected in a so-called CMT paddle, which has four cups corresponding to the four quarters of the udder. To these cups, equal amounts of CMT solution (made up of a detergent to break down cell walls, a compound that reacts with the cellular DNA and a pH indicator; California Mastitis Test kit, TechniVet, Brunswick, Me.) is added after which the solution is swirled. The CMT solution provides an estimate of the number of cells in the milk (inflammatory cells due to infection by mastitis). As the cell content increases the mixture becomes thick and gel-like and the results are based on the appearance of the solutions. ‘Negative’ in the mastitis test means that the mixture remains fluid; ‘suspicious’ means that the mixture becomes slimy or gel like, and ‘positive’ means that the mixture distinctly forms a gel or jelly. […] The lack of mastitis was also confirmed by the fact that in laboratory tests no inflammatory-inducing bacteria were grown from the rhFib transgenic cow milk. Finally the clinical signs of the cows confirmed that infectious mastitis was not the etiology of the clotting. […] The (blue) staining by the CMT solution provided a useful tool to visualize the clots and helped to distinguish between some of the low scores of rate 1 and 2.
A cow's udder has four quarters, each with their own teat. A cow may loose a quarter due to mastitis but still give milk through the remaining quarters. […] Therefore at each milking period, each quarter was given a clot score and recorded on her milk sheet form. The highest score on the paddle for each day was considered the cow's score for that day when complying the clotting data.
With natural lactation, it is common for cattle to develop swelling and edema in their udders around the time of calving and as they “come into milk” during the first few weeks of lactation. This inflammation of the mammary tissue may activate the rhFib and lead to precipitation within the mammary tissue. This then may lead to a decrease in the milk production and difficulty in removing the milk from the gland. It was hypothesized by the inventors that by a non-natural lactation (that is: by a chemical/hormonal lactation induction), this udder swelling and edema would be avoided and the rhFib would not be activated. This would facilitate an easier lactation with minimal precipitation. For this reason, lactation induction was chosen to produce rhFib in cow #13.
After this, all clot scores remained between 0-1. […] This dose was maintained during day 17 to day 31 and all clot scores still remained between 0-1.
Seven transgenic rhFib cattle were induced to lactate using an estradiol-progesterone alcohol solution and dexamethasone injections as outlined above. From these seven animals, after an initial 34 days of milking, five transgenic cattle were selected to complete an ongoing 16 week lactation period (146 days in total). During this 16 week period 5 liters of milk was saved per animal per week for future production purposes. If an animal was to develop consistent clotting within this production period then a treatment trial with warfarin would begin. Data was collected on these animals to see what level of clot scores they generally reached. […]

[5] = for 5 days; cited from earlier work
[6] = tested on: clots and flakes in the milk of rhFib transgenic cattle; assay: Clot scoring of milk of rhFib transgenic cow and heifers during natural lactation; type: in vivo; conditions: all five animals
Source text: Recombinant human fibrinogen has been produced in the milk of transgenic cows for some years now. […] To score the level of clotting and to measure any effects, standards were set to determine whether treatment of the cows to reduce clotting was indeed effective. The standards are provided in Table I. Score level 0 is equal to normal milk from non-transgenic cows, whereas score level 4 equals a dramatic level of clotting and the milking machine is unable to extract the milk from the teat. CMT stands for ‘California Mastitis Test’ and is a standard cow side test that screens for the presence of mastitis, a known cause of milk clotting. When a cow is milked, the milk is collected in a so-called CMT paddle, which has four cups corresponding to the four quarters of the udder. To these cups, equal amounts of CMT solution (made up of a detergent to break down cell walls, a compound that reacts with the cellular DNA and a pH indicator; California Mastitis Test kit, TechniVet, Brunswick, Me.) is added after which the solution is swirled. The CMT solution provides an estimate of the number of cells in the milk (inflammatory cells due to infection by mastitis). […]
A cow's udder has four quarters, each with their own teat. […] Therefore at each milking period, each quarter was given a clot score and recorded on her milk sheet form. […]

With heparin the clot scores ([1]; 150 IU/kg SQ twice a day for 5 days, during administration) was “decreased” and the clot scores ([1]; after heparin therapy was discontinued) was “remained low and decreased further with time”.

In the case of `CC(=O)CC(c1ccccc1)c1c(O)c2ccccc2oc1=O` (centres unmarked) [warfarin], the rhFib level ([2]; heifer 462) is reported as 1.3 mg/ml raw milk and 2.09 mg/ml raw milk, the rhFib level ([2]; heifer 463) is reported as 1.61 mg/ml raw milk and the rhFib level ([2]; heifer 474) is reported as 0.41 mg/ml raw milk and 0.58 mg/ml raw milk. The “concentration of rhFib in milk over time upon warfarin treatment” value ([2]; three warfarin-treated heifers, while clot score levels drop) was “seem to increase”, the adverse effects ([3]; cow #4289, 120 mg/day (~0.17 mg/kg) orally for 17 days) was “no adverse effects were observed” and the adverse effects ([3]; cow #4289, 130 mg/day (~0.18 mg/kg) orally for 6 days, animal euthanized) was “developed a bleeding hematoma over the shoulder/thorax”. For the same compound, the “days of therapy for the PT times to double” value ([3]; cow #6685, 100 mg/day (~0.18 mg/kg)) was 6 days, the adverse effects ([3]; cow #6685, 100 mg/day (~0.18 mg/kg) orally for 14 days) was “No adverse affects were found” and the clot scores ([4]; #462 and #463, dry off period after warfarin stopped) was 3 (Greater than 10 clots from the quarter on the CMT paddle). It also gave a clot score ([4]; #462 at day 125, single score during treatment) of 1, a clot scores ([4]; #462 at day 149, after warfarin stopped at day 142, milk started to plug the filters) of 1 and a clot scores ([4]; #463 at day 161, single quarter, after warfarin stopped at day 142) of 1. For the same compound, the “time until clot scores increased to level 3 after warfarin was stopped” value ([4]; #474, stopped at day 142 of milking) was ≤ 3 days, the “Highest clot score, #474 Frey” value ([4]; after discontinuation of warfarin on day 142 of lactation, lines = week of lactation) was 3* (Greater than 10 clots from the quarter on the CMT paddle) and the clot scores ([4]; cow #13, 0.12 mg/kg, day 17 to day 31) was 0-1. For the same compound, the adverse effects ([4]; cow #13, 0.12 or 0.13 mg/kg per day) was “No adverse effects were observed”, the clot scores ([4]; cow #13, 7 days after warfarin therapy was re-initiated) was 1 and the clot scores ([4]; cow #13, 18 days after warfarin was again discontinued, until dried off) was 2 (Less than 10 clots from the quarter on the CMT paddle). For the same compound, the clot scores ([4]; cow #13, induced lactation, 0.13 mg/kg orally once a day from Time 0) was 0-1, the clot scores ([4]; cow #13, over the next 11 days after re-initiation) was 0 and the clot scores ([4]; cow #13, warfarin discontinued for 19 days) was 2 (Less than 10 clots from the quarter on the CMT paddle). For the same compound, the “clot scores reached with warfarin treatment” value ([4]; cow #13, within a week (conclusion)) was 0-1, the clot scores ([4]; three heifers #462, #463, #474, within a week after warfarin therapy was initiated) was 1 and the “PT times equal to or above twice the baseline value” ([4]; three rhFib-transgenic heifers, 0.10 mg/kg daily, PT monitored weekly) was “did not occur”. For the same compound, the LD50 for cattle [5] was 200 mg/kg/day, the “adverse reactions from the warfarin treatment” value ([6]; 0.10 to max 0.15 mg/kg) was “did not show any adverse reactions” and the highest clot scores ([6]; after a few days of warfarin 0.10 mg/kg) was 0-1.
